Laboratory results taken from patent US20130203823A1, “STABLE TOPICAL COMPOSITIONS FOR 1,2,4-THIADIAZOLE DERIVATIVES” (JANSSEN PHARMACEUTICAL, INC., priority 2009, published 2013).

Legend:
[1] = Stability of the compound in the composition on storage, concentration by HPLC versus initial concentration; format: physicochemical
From the text: The compositions of the present invention have desired and improved properties, including the extended shelf-life or stability and the suitable commercial production. As used herein, the terms ‘stable composition’, ‘stable formulation’, ‘composition with extended shelf-life’ or variants thereof refer to the compound of Formula I, II, or III (and most preferably Compounds Ia, IIa, and IIIa) in the composition is stable. The stability or shelf-life of the compound may be determined by measuring the concentration and any degradation product of the compound of Formula I, II or III in the compositions using high performance liquid chromatography (HPLC). As commonly referred in the art, the compound is considered to be stable or being stabilized when the concentration of the compound retains at least about 90% to at least about 110%, preferably at least about 95% to at least about 105%, of the original concentration of the compound.
By way of example, the stability of the compound of Formula I, II, or III is determined using HPLC equipped with a temperature-controlled autosampler, a thermostatic column compartment, and an UV detector at about 326 nm (Agilent 1100, Waters alliance HPLC). A Zorbax C18 column is used for analyzing Compound Ia and a YMC-Pack Hydrosphere C18 column is used for analyzing Compound IIa. A binary linear gradient of mobile phases A and B is used. The mobile phase A may consist of about 0.2% trifluroacetic acid in water and the mobile phase B may consist of about 0.2% trifluroacetic acid in methanol. The gradient conditions are provided below.
The stability of Compound Ia was examined by measuring the concentration of Compound Ia using HPLC. The concentration of the compound in the composition stored at various temperatures for a period of time was compared to the initial concentration of the compound prior to storage.

[2] = In vitro skin permeation study, cadaver skin finite dose technique, Franz diffusion cell; format: in vitro ADME, human
Description: The cadaver skin finite dose technique was used for the studies. Split thickness human cadaver trunk skin was obtained from skin bank and stored in a water-impermeable plastic bag at about −70° C. Prior to each experiment, skin was thawed in water bath at about 37° C., then cut into sections large enough to fit on the Franz diffusion cell. The diffusion cells were mounted in a diffusion apparatus and filled with a receptor solution of ethanol/water/formic acid (25/75/0.3), which was stirred at about 600 RPM and maintained at about 32° C. The skin was mounted onto the diffusion cell, where the stratum corneum side faced the donor compartment and the dermal side faced the receiving compartment. About 10 μl per cm^2 of the composition was applied to the skin using a pipette. The dose was spread throughout the skin surface with a Teflon tip of the pipette. After about 4, 8, 12 and 24 hrs, the receptor solution was removed and replaced with fresh receptor solution. An aliquot was taken for analysis. The skin surface was washed with about 0.5 ml of a solvent mixture of methanol/water/formic acid (90/10/0.3). The solvent mixture was filtered and an aliquot was taken for analysis. Subsequently, the dermis and epidermis were separated and Compound IIa was extracted using the solvent mixture. The solvent mixture was filtered and an aliquot was taken for analysis. Samples were analyzed using HPLC.

[3] = aqueous gel formulation B, 0.30% w/w Compound IIa
[4] = aqueous gel formulation B, 0.60% w/w Compound IIa
[5] = aqueous gel formulation B, 1.2% w/w Compound IIa
[6] = cream composition E (as titled), 0.30% w/w Compound IIa
[7] = cream composition E (as titled), 0.60% w/w Compound IIa
[8] = cream composition E (as titled), 1.2% w/w Compound IIa
[9] = cream composition E (as titled), 2.4% w/w Compound IIa

With `COc1ccccc1-c1nc(=Nc2ccccc2)sn1-c1ccccc1OC` [Compound IIa, [2-(2-methoxyphenyl)-3-(2-methoxyphenyl)-2H-[1,2,4]-thiadiazol-5-ylidene]-phenylamine] the “% of Initial Concentration” value ([1]; aqueous gel composition B, 0.3% Compound IIa, 12 months, 5° C.) was 99.47%, the “% of Initial Concentration” value ([1]; aqueous gel composition B, 0.3% Compound IIa, 12 months, 25° C.) was 95.60% and the “% of Initial Concentration” value ([1]; aqueous gel composition B, 0.3% Compound IIa, 24 months, 5° C.) was 97.92%. The “% of Initial Concentration” value ([1]; aqueous gel composition B, 0.3% Compound IIa, 24 months, 25° C.) was 89.49%, the “% of Initial Concentration” value ([1]; aqueous gel composition B, 0.6% Compound IIa, 12 months, 25° C.) was 93.90% and the “% of Initial Concentration” value ([1]; aqueous gel composition B, 0.6% Compound IIa, 24 months, 5° C.) was 97.02%. For the same compound, the “% of Initial Concentration” value ([1]; aqueous gel composition B, 0.6% Compound IIa, 24 months, 25° C.) was 92.69%, the “% of Initial Concentration” value ([1]; aqueous gel composition B, 1.2% Compound IIa, 12 months, 25° C.) was 95.49% and the “% of Initial Concentration” value ([1]; aqueous gel composition B, 1.2% Compound IIa, 24 months, 5° C.) was 97.56%. For the same compound, the “% of Initial Concentration” value ([1]; aqueous gel composition B, 1.2% Compound IIa, 24 months, 25° C.) was 93.87%, the “% of Initial Concentration” value ([1]; aqueous gel composition B, 1.5% Compound IIa, 12 months, 5° C.) was 100.68% and the “% of Initial Concentration” value ([1]; aqueous gel composition B, 1.5% Compound IIa, 12 months, 25° C.) was 99.03%. For the same compound, the “% of Initial Concentration” value ([1]; aqueous gel composition B, 2.4% Compound IIa, 12 months, 25° C.) was 101.30%, the “Stability in the composition (in words)” value ([1]; aqueous gel composition B, various amounts of Compound IIa, ambient condition) was “stable at ambient condition” and the “Time for which the compound was stable” value ([1]; cream composition C (so in the source), ambient condition) was “at least 6 months”. The “Time for which the compound was stable” value ([1]; cream composition C (so in the source), refrigerated condition) was “at least 18 months”, the “% of Initial Concentration” value ([1]; cream composition D, 1.2% Compound IIa, 6 months, 5° C.) was 100.0% and the “% of Initial Concentration” value ([1]; cream composition D, 1.2% Compound IIa, 6 months, 25° C.) was 94.1%. The “% of Initial Concentration” value ([1]; cream composition D, 1.2% Compound IIa, 12 months, 5° C.) was 98.3%, the “% of Initial Concentration” value ([1]; cream composition D, 1.2% Compound IIa, 18 months, 5° C.) was 100.8% and the “% of Initial Concentration” value ([1]; emulsion composition E, 3 months, 5° C.) was 101.40%. The “% of Initial Concentration” value ([1]; emulsion composition E, 3 months, 25° C.) was 98.01%, the “% of Initial Concentration” value ([1]; emulsion composition E, 6 months, 5° C.) was 100.11% and the “% of Initial Concentration” value ([1]; emulsion composition E, 6 months, 25° C.) was 95.61%. For the same compound, the “% of Initial Concentration” value ([1]; emulsion composition E, 9 months, 5° C.) was 100.20%, the “% of Initial Concentration” value ([1]; emulsion composition E, 13 months, 5° C.) was 100.54% and the “Time for which the compound was stable” value ([1]; emulsion composition E, refrigerated condition) was “at least 13 months”. For the same compound, the “Skin penetration (in words)” value ([2]; aqueous gel formulation B) was “able to penetrate into epidermis, dermis and receptor solution”, the “Total amount permeated into Dermis” value [2, 3] was 0.004 µg and the “Total amount permeated into Epidermis” value [2, 3] was 0.361 µg. The “Total amount permeated into Receptor solution” value [2, 3] was 0.020 µg, the “Total amount permeated into Dermis” value [2, 4] was 0.007 µg and the “Total amount permeated into Epidermis” value [2, 4] was 0.164 µg. The “Total amount permeated into Receptor solution” value [2, 4] was 0.045 µg, the “Total amount permeated into Dermis” value [2, 5] was 0.007 µg and the “Total amount permeated into Epidermis” value [2, 5] was 0.537 µg. For the same compound, the “Total amount permeated into Receptor solution” value [2, 5] was 0.074 µg, the “Total penetration amount in epidermis, dermis and receptor solution versus concentration (in words)” value ([2]; as the concentration of Compound IIa increased in the formulations) was “increased” and the “Skin penetration (in words)” value ([2]; cream composition D) was “able to penetrate into epidermis, dermis and receptor solution”. The “Total amount permeated into Dermis” value [2, 6] was 0.003 µg, the “Total amount permeated into Epidermis” value [2, 6] was 0.279 µg and the “Total amount permeated into Receptor solution” value [2, 6] was 0.015 µg. The “Total amount permeated into Dermis” value [2, 7] was 0.015 µg, the “Total amount permeated into Epidermis” value [2, 7] was 0.357 µg and the “Total amount permeated into Receptor solution” value [2, 7] was 0.025 µg. For the same compound, the “Total amount permeated into Dermis” value [2, 8] was 0.014 µg, the “Total amount permeated into Epidermis” value [2, 8] was 0.428 µg and the “Total amount permeated into Receptor solution” value [2, 8] was 0.025 µg. For the same compound, the “Total amount permeated into Dermis” value [2, 9] was 0.028 µg, the “Total amount permeated into Epidermis” value [2, 9] was 0.681 µg and the “Total amount permeated into Receptor solution” value [2, 9] was 0.070 µg.

In the case of `COc1ccccc1-c1nc(Nc2ccccc2)s[n+]1-c1ccccc1OC.[Br-]` [Compound Ia, 2-(2-methoxyphenyl)-3-(2-methoxyphenyl)-5-phenylamino-[1,2,4]-thiadiazol-2-ium], the “Stability in the composition (in words)” value ([1]; aqueous gel composition A, 0.3% Compound Ia, ambient condition) is reported as “stable at ambient condition” and the “Time for which the compound was stable” value ([1]; emulsion composition F, refrigerated condition) is reported as “at least 4 weeks”.
